This note sets out measurements from patent US11872262B2, “Means and methods for treating bacterial infections” (VIB VZW, priority 2017, dated 2024).

SMILES strings stand for the structures. Residues, ends and D or L forms follow the SMILES beside them.

The subject of this assay is E. coli O157:H7. Type of assay: cell-based, Escherichia coli. The conditions noted are these: screening-stage peptides tested at 1, 6, 12 and 25 μg/mL. In outline:
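Tandem-repeat aggregation-prone-region peptides from DMSO stocks were tested for growth inhibition of E. coli O157:H7 at 1, 6, 12 and 25 μg/mL.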
For `CC(C)C[C@H](NC(=O)[C@H](C)NC(=O)[C@@H](N)CCCNC(=N)N)C(=O)N[C@@H](C)C(=O)N[C@@H](CCCNC(=N)N)C(=O)N[C@@H](C)C(=O)N[C@@H](CC(C)C)C(=O)N[C@@H](CC(C)C)C(=O)N[C@@H](CCCNC(=N)N)C(=O)N[C@@H](CCCNC(=N)N)C(=O)N1CCC[C@H]1C(=O)N[C@@H](CCCNC(=N)N)C(=O)N[C@@H](C)C(=O)N[C@@H](CC(C)C)C(=O)N[C@@H](C)C(=O)N[C@H](C(=O)N[C@@H](C)C(=O)N[C@@H](CC(C)C)C(=O)N[C@@H](CC(C)C)C(=O)N[C@@H](CCCNC(=N)N)C(=O)N[C@@H](CCCNC(=N)N)C(=O)O)C(C)C` [Peptide P112] (H-RALARALLRRPRALAVALLRR-OH; N-terminus and C-terminus assumed), the “E. coli O157 (apparent MIC in screen)” value was determined as 25 µg/mL.
With `CC(C)C[C@H](NC(=O)CNC(=O)[C@H](CC(C)C)NC(=O)[C@@H](NC(=O)[C@H](C)NC(=O)[C@H](CCCNC(=N)N)NC(=O)[C@@H]1CCCN1C(=O)[C@H](CCCNC(=N)N)NC(=O)[C@H](CCCNC(=N)N)NC(=O)[C@H](C)NC(=O)[C@H](CC(C)C)NC(=O)[C@H](CC(C)C)NC(=O)[C@H](CCCNC(=N)N)NC(=O)[C@H](CC(C)C)NC(=O)[C@@H](NC(=O)[C@H](C)NC(=O)[C@@H](N)CCCNC(=N)N)C(C)C)C(C)C)C(=O)N[C@@H](CC(C)C)C(=O)N[C@@H](C)C(=O)N[C@@H](CCCNC(=N)N)C(=O)N[C@@H](CCCNC(=N)N)C(=O)O` [Peptide P113] (H-RAVLRLLARRPRAVLGLLARR-OH; N-terminus and C-terminus assumed) the figure was 25 µg/mL; with `CC(C)C[C@H](NC(=O)CNC(=O)[C@H](CCCNC(=N)N)NC(=O)[C@@H]1CCCN1C(=O)[C@H](CCCNC(=N)N)NC(=O)[C@H](CCCNC(=N)N)NC(=O)[C@H](C)NC(=O)[C@H](CCCNC(=N)N)NC(=O)[C@H](CC(C)C)NC(=O)[C@H](C)NC(=O)[C@H](CC(C)C)NC(=O)[C@H](CC(C)C)NC(=O)CNC(=O)[C@@H](N)CCCNC(=N)N)C(=O)N[C@@H](CC(C)C)C(=O)N[C@@H](C)C(=O)N[C@@H](CC(C)C)C(=O)N[C@@H](CC(C)C)C(=O)N[C@@H](C)C(=O)N[C@@H](CCCNC(=N)N)C(=O)N[C@@H](CCCNC(=N)N)C(=O)O` [Peptide P114] (H-RGLLALRARRPRGLLALLARR-OH; N-terminus and C-terminus assumed), 25 µg/mL.
Take `CC[C@H](C)[C@H](NC(=O)CNC(=O)[C@@H](NC(=O)[C@H](CC(C)C)NC(=O)[C@H](CCCNC(=N)N)NC(=O)[C@@H]1CCCN1C(=O)[C@H](CCCNC(=N)N)NC(=O)[C@H](CCCNC(=N)N)NC(=O)CNC(=O)[C@H](CC(C)C)NC(=O)[C@H](C)NC(=O)[C@@H](NC(=O)[C@H](CCCNC(=N)N)NC(=O)[C@@H](NC(=O)[C@H](CC(C)C)NC(=O)[C@@H](N)CCCNC(=N)N)[C@@H](C)CC)[C@@H](C)CC)[C@@H](C)CC)C(=O)N[C@@H](C)C(=O)N[C@@H](CC(C)C)C(=O)NCC(=O)N[C@@H](CCCNC(=N)N)C(=O)N[C@@H](CCCNC(=N)N)C(=O)O` [Peptide P115] (H-RLIRIALGRRPRLIGIALGRR-OH; N-terminus and C-terminus assumed): the “E. coli O157 (apparent MIC in screen)” value is 25 µg/mL.
With `CC(C)C[C@H](NC(=O)[C@H](C)NC(=O)[C@H](CCCNC(=N)N)NC(=O)[C@@H]1CCCN1C(=O)[C@H](CCCNC(=N)N)NC(=O)[C@H](CCCNC(=N)N)NC(=O)[C@H](CCCNC(=N)N)NC(=O)[C@@H](NC(=O)[C@H](C)NC(=O)[C@@H](NC(=O)[C@H](CC(C)C)NC(=O)[C@H](CC(C)C)NC(=O)[C@H](C)NC(=O)[C@@H](N)CCCNC(=N)N)[C@@H](C)O)C(C)C)C(=O)N[C@@H](CC(C)C)C(=O)N[C@H](C(=O)N[C@@H](C)C(=O)N[C@H](C(=O)N[C@@H](CC(C)C)C(=O)N[C@@H](CCCNC(=N)N)C(=O)N[C@@H](CCCNC(=N)N)C(=O)O)C(C)C)[C@@H](C)O` [Peptide P116] (H-RALLTAVRRRPRALLTAVLRR-OH; N-terminus and C-terminus assumed) the figure was 6 µg/mL.
